Measurements reported in ChEMBL document CHEMBL1201862, “PubChem BioAssay data set” (2004).
Calls of active or inactive are those of the source.

What was measured:
Apelin receptor = Apelin receptor (Homo sapiens, UniProt P35414); assay: APJ beta-arrestin recruitment antagonism, SAR follow-up, selectivity assay for CCR6 antagonist project, cell-based, luminescent, enzyme-fragment complementation (AID 588359); type: functional
Beta-galactosidase = Beta-galactosidase (Escherichia coli, UniProt Q8VNN2); assay: beta-galactosidase enzyme inhibitors and activators, dose response, artefact control for CCR6 antagonist project, biochemical, E. coli enzyme, set 3 (AID 504712); type: functional
[1] = growth induction of Burl-1 ts yeast mutant, dose response, counter-screen for SUMOylation pathway inhibitor project, whole organism, S. cerevisiae, luminescence (AID 463199); type: functional
[2] = biological target: T1, Heat shock factor protein 1 (Mus musculus, UniProt P38532); assay: inhibition of MG132-induced HSE-luciferase signal, confirmation, cell-based, NIH3T3, luminescence, dose retest (AID 2382); type: functional;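 note: NIH3T3 fibroblasts with HSF1-driven luciferase reporter stressed by proteasome inhibitor MG132; luminescence from HSF1-driven luciferase expression after 8 hours of MG132 stress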
T1 sequence (P38532 whole entry): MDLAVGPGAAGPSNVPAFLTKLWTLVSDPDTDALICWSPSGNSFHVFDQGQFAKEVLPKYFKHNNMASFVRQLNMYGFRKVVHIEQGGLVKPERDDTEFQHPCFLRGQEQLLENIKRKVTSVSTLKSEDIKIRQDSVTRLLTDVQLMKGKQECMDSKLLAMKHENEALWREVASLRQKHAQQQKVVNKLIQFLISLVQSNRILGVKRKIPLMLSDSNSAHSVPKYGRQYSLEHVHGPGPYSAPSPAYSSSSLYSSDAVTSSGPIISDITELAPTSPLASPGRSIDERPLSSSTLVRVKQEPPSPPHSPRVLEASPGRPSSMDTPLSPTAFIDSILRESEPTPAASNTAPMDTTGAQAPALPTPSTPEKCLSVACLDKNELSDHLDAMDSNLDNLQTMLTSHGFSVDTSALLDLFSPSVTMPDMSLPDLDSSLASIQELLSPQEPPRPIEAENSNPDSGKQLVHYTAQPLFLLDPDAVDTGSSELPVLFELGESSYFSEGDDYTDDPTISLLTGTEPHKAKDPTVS

[3] = biological target: T2, Rac GTPase-activating protein 1 (Homo sapiens, UniProt Q9H0H5); assay: MgcRacGAP GTPase-activating activity inhibitors, confirmation, biochemical, ADP Hunter fluorescence, primary and confirmatory (AID 624330); type: functional
T2 sequence (Q9H0H5 whole entry): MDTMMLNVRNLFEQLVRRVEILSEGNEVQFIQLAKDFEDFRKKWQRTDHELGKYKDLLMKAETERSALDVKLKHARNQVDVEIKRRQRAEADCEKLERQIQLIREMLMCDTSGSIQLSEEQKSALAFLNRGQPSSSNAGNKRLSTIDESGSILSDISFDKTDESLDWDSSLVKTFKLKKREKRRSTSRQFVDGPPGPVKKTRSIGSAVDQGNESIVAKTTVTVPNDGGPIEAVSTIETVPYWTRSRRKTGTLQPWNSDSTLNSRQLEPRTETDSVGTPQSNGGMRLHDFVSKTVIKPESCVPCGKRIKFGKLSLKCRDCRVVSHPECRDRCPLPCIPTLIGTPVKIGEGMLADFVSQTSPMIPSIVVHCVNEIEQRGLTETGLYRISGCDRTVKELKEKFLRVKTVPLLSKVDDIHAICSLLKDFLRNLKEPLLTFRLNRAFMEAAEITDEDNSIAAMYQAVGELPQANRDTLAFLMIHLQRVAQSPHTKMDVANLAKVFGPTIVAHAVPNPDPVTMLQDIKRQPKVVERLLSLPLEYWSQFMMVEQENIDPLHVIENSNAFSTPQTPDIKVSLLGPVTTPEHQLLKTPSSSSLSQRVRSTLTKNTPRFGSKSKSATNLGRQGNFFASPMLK

[4] = biological target: T3, Apoptotic protease-activating factor 1 (Homo sapiens, UniProt O14727); type: functional
T3 sequence (O14727 whole entry): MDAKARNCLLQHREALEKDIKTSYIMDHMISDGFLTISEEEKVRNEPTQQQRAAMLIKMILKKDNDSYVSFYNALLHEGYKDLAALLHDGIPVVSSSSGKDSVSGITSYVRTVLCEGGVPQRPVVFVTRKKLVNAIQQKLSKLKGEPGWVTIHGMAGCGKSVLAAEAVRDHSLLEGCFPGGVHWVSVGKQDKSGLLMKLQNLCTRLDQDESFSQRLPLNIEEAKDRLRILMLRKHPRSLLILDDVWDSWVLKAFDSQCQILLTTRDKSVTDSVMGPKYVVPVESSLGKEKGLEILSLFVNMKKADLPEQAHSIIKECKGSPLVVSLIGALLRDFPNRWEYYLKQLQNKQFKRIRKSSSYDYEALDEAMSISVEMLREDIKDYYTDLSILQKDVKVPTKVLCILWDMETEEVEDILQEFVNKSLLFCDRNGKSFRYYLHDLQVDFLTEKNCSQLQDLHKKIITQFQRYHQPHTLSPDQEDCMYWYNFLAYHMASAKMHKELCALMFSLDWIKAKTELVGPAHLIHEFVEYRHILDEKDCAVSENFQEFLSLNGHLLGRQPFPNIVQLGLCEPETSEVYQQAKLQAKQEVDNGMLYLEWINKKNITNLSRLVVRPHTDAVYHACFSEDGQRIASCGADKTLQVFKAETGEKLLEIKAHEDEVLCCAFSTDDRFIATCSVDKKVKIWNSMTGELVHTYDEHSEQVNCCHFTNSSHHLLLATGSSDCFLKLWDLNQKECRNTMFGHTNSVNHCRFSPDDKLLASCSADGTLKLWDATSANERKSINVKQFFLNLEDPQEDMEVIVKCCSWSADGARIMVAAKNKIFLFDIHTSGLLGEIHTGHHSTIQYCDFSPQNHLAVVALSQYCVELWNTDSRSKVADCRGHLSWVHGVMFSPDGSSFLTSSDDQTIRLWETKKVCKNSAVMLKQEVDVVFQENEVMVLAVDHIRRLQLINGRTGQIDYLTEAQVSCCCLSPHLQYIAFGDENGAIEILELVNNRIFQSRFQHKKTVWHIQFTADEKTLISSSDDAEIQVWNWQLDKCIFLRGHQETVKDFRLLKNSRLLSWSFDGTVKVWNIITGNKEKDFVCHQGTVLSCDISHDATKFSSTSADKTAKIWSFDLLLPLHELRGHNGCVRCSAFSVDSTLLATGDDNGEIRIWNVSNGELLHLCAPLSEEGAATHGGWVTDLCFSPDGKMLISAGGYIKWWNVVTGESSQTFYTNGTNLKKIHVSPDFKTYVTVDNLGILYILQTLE

[5] = biological target: Lysine-specific demethylase 4C (Homo sapiens, UniProt Q9H3R0); assay: GASC-1 (JMJD2C) histone demethylase inhibitors, dose response, biochemical, DELFIA europium, cherry-picked samples (AID 488835); type: functional
[6] = biological target: Heat shock protein HSP 90-alpha (Homo sapiens, UniProt P07900); type: functional, organism-based
INS1 = assay: beta cell apoptosis inhibitors, cytokine rescue, dose response, luminescence, retest (AID 449756); type: functional, cell-based; conditions: Rattus norvegicus;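 note: cell death triggered by IL-1 beta plus TNF-alpha plus IFN-gamma mixture; protective hits raise ATP signal compared with cytokine alone wells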
[7] = biological target: DNA dC->dU-editing enzyme APOBEC-3G (Homo sapiens, UniProt Q9HC16); assay: Dose Response confirmation of small molecule APOBEC3G DNA Deaminase Inhibitors via a fluorescence-based single-stranded DNA deaminase assay. [Related pubchem assays (depositor defined):AID493012, AID493028]; type: functional
[8] = biological target: RNA-editing ligase 1, mitochondrial (Trypanosoma brucei brucei, UniProt P86926); assay: TbREL1 ligase inhibitors, dose response, biochemical, fluorescence, Trypanosoma brucei (AID 1117295); type: functional
[9] = biological target: DNA dC->dU-editing enzyme APOBEC-3A (Homo sapiens, UniProt P31941); assay: APOBEC3A DNA deaminase inhibitors, dose response, biochemical (AID 504722); type: functional
Chain of DNA dC->dU-editing enzyme APOBEC-3A (P31941 whole entry): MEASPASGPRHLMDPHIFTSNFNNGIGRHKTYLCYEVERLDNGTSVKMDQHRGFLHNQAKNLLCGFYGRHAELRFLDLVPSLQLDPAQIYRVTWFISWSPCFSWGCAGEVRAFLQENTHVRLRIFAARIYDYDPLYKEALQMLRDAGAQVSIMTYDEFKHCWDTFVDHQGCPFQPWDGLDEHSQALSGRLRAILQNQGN

Chain of Lysine-specific demethylase 4C (Q9H3R0 whole entry): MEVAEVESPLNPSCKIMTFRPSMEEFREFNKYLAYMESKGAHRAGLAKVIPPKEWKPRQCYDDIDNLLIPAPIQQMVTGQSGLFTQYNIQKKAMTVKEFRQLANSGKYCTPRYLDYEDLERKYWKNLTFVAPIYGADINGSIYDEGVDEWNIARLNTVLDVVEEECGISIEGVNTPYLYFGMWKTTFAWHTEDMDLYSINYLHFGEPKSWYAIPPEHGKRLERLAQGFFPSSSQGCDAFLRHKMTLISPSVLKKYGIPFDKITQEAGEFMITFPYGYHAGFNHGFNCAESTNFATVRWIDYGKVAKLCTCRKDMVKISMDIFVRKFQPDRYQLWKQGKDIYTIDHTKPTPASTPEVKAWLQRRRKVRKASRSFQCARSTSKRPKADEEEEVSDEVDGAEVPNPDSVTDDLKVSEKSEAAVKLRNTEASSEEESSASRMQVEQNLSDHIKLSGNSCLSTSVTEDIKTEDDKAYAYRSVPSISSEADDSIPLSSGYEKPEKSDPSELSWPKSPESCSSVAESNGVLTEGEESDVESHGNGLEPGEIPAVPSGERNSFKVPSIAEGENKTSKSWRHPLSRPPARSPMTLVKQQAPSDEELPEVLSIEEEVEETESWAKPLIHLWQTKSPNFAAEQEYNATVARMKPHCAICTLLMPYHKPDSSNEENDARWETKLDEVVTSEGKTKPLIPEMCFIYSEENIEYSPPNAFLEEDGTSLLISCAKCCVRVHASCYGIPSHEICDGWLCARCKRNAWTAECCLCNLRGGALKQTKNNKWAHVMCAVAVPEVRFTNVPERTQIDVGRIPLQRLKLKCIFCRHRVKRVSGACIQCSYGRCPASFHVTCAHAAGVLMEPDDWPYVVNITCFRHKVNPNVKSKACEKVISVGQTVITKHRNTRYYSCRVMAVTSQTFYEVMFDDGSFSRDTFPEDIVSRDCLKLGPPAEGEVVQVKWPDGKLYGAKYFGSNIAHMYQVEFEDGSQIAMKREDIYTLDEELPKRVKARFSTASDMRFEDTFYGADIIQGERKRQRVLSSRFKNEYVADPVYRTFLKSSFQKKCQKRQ
Chain of DNA dC->dU-editing enzyme APOBEC-3G (Q9HC16 whole entry): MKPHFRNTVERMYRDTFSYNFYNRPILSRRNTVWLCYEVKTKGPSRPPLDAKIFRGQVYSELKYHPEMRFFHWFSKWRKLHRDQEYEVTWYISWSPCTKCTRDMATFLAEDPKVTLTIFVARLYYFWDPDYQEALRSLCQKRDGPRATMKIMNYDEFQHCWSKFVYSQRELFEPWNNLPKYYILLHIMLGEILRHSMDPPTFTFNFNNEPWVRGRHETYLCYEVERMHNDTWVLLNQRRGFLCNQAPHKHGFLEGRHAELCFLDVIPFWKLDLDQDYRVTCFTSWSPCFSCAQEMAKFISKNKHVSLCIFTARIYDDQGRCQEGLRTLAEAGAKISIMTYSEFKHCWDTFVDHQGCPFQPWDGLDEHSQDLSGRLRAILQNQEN
Chain of RNA-editing ligase 1, mitochondrial (P86926 whole entry): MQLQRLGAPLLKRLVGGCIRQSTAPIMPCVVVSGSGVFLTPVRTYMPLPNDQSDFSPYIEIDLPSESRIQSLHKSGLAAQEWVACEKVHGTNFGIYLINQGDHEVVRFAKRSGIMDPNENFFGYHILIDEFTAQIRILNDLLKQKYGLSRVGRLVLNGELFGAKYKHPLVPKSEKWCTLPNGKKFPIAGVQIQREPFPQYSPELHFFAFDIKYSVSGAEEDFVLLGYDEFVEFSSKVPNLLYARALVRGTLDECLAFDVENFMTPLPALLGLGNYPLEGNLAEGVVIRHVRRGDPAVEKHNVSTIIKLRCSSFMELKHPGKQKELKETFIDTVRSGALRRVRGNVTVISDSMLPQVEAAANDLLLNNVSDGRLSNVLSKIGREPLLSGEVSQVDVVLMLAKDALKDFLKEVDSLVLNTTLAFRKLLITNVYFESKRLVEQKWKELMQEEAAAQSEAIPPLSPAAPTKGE
Chain of Apelin receptor (P35414 whole entry, the tested form may be a part): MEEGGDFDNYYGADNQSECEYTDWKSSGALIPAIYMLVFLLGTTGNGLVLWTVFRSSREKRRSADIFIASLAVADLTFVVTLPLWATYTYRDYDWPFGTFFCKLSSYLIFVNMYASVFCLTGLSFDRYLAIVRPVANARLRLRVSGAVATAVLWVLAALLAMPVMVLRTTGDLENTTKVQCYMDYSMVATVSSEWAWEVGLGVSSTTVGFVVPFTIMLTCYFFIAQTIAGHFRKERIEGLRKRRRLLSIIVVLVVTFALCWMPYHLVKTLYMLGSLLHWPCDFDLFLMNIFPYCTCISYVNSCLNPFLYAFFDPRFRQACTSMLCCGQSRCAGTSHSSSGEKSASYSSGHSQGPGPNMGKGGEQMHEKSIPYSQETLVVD
Chain of Beta-galactosidase (Q8VNN2 whole entry): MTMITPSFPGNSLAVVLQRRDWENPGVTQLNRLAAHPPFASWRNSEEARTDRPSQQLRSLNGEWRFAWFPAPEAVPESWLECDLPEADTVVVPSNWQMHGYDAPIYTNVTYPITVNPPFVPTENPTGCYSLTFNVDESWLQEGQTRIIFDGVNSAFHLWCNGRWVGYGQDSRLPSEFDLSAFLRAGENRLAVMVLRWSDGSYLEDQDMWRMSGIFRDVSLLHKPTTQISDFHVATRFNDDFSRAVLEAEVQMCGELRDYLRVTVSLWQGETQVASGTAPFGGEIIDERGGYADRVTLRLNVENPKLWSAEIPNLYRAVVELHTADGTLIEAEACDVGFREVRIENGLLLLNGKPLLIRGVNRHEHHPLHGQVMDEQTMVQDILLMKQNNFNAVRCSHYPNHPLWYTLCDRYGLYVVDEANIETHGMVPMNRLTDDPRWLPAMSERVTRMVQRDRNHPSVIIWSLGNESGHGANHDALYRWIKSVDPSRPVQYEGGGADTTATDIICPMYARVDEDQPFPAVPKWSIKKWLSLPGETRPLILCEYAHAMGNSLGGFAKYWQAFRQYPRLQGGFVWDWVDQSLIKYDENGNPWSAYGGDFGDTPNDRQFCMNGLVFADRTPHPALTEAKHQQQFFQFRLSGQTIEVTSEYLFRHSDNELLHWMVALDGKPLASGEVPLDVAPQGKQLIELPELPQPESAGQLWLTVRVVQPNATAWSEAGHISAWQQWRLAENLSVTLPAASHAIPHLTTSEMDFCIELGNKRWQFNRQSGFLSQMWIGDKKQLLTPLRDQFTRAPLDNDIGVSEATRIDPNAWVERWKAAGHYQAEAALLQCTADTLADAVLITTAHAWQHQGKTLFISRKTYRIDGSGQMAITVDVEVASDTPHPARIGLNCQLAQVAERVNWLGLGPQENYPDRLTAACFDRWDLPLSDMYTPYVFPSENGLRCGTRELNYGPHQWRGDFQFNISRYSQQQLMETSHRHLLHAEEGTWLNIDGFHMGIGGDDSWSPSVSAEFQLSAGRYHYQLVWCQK

For `O=C(NNC(=O)c1cc(-c2ccccc2)nn1-c1ccccc1)c1ccccc1`, which IC50 (Apelin receptor) is on record?
The IC50 was 14.8 µM (active).

What about the IC50 (Beta-galactosidase) of the same compound?
The IC50 was > 66.6 µM (inactive).

For `O=C(c1ccc([N+](=O)[O-])cc1)N1CCN(c2ncc(Br)cn2)CC1`, which AC50 [1] is on record?
Its AC50 is 72.3 µM (active).

And the EC50 [2]?
The EC50 was > 195 µM (not active).

For `CCNCCNC(=O)c1c(O)nc2c(c1O)CCCC2`, which AC50 [1] is on record?
Its AC50 is 73.1 µM (active).

Which results are given for `Cc1nnc(N=c2ssnc2Cl)o1`?
IC50 [3]: 69.6 µM (active); IC50 [4]: 16 µM (active); AC50 [5]: 6.06 µM (active); AC50 [6]: 3.13 µM (active); AC50 (INS1): 3.77 µM (active); IC50 [7]: 4.6 µM (active); IC50 [8]: 79 µM (inactive); IC50 [9]: > 100 µM (inactive)
